The values below come from patent publication US20090124587A1, “METHODS FOR TREATING CANCER USING 17alpha-HYDROXYLASE/C17,20-LYASE INHIBITORS” (priority 2007, published 2009).

Format in all cases: in vivo, human
Data set [1] can be described thus: Safety, dose limiting toxicity in phase I/II study. Particulars: all subjects tested, Group 1 (250-2000 mg/day) and Group 2 (1000 mg/day). How it is done:
An open label phase I/II study was carried out to evaluate the safety, efficacy and recommended dose of abiraterone acetate in prostate cancer patients. Pharmacokinetics (PK), pharmacodynamics and antitumor efficacy were also studied.
(§1) The effect of abiraterone acetate on the blood levels of prostate-specific antigen (PSA) was evaluated. Two groups of subjects were involved in the study. The first group (“Group 1”) was comprised of the 18 subjects discussed above as well as 12 additional subjects that were administered 1000 mg/day of abiraterone acetate. All 30 of the subjects in Group 1 were castrated and hormone refractory; however, none of the 30 had been treated with chemotherapy, i.e., they were chemotherapy-naïve. The second group (“Group 2”) was comprised of 13 subjects, all of whom were castrated and hormone refractory. Also, these 13 subjects had been administered docetaxel and were chemotherapy refractory. The subjects in Group 2 were administered 1000 mg/day of abiraterone acetate. The subjects in both groups were administered abiraterone acetate until they progressed.

The next data set has as its system tumor lesions. As to the kind of experiment: Effect on tumor mass size, CT scans (RECIST), bone disease, nodes and metastases. Here is the method:
as §1
The effect of the administration of abiraterone acetate on tumor mass size was observed.

Data set [2] concerns circulating tumor cells (CTC). Description: Number of circulating tumor cells after administration. As to conditions: certain patients after administration.
Data set [3] deals with androgenic steroids, such as testosterone. Description: Blood plasma levels of androgenic steroids. As to conditions: some subjects. Here is the method: (§2) FIGS. 15A-15H show the blood plasma level of certain steroids over time in subjects that were administered 250 mg/day, 500 mg/day and 750 mg/day of abiraterone acetate.
Data set [4] deals with prostate-specific antigen (PSA). Description: Effect of abiraterone acetate on blood levels of prostate-specific antigen (PSA). How it is done:
as §1
60% of the Group 1 subjects (18 of 30) experienced a decline of PSA levels of greater than 50% for more than 10 days. A third of these subjects experienced PSA declines of greater than 90% for more than 10 days. FIGS. 9A-9D show the effect of the administration of abiraterone acetate on PSA levels for certain of the Group 1 subjects that were administered 250 mg/day, 500 mg/day, 750 mg/day and 1000 mg/day of abiraterone acetate. With respect to the Group 2 subjects, 7 of the 13 subjects experienced a decline in PSA levels of about 50% for more than 10 days.

Data set [5] is described as follows: Food effect PK study, two single oral 1000 mg doses of abiraterone acetate, fed (high fat) vs fasted. How it is done: (§3) To measure the amount of abiraterone and abiraterone acetate in the samples, these compounds were extracted from 100 uL human plasma using solid phase extraction (SPE) with cation mixed-mode polymer cartridges. Extracts were evaporated to dryness before reconstitution and analysis. Chromatography was carried out using a Luna™ C5 column (5 μm, 50 mm×2.1 mm id) with a gradient mobile phase consisting of 10 mM ammonium acetate and 2% propan-2-ol in acetonitrile. The flow rate was 0.2 mL/min and the run time 10.5 minutes. Abiraterone and abiraterone acetate were ionized using the electrospray interface in positive ion mode. Detection of analytes was via tandem mass spectrometry (MS/MS) in the multiple reaction monitoring (MRM) mode.
PK modeling was conducted using a non-compartmental model, extra vascular input for plasma with WinNonLin Software®. Pharmacokinetic parameters estimated in the model include:
Based on the above results, the PK parameters for a single dose of 1000 mg/day of abiraterone acetate were further studied in the 3 subjects who were administered the 1000 mg/day dose and in 3 additional subjects. Two single oral doses (1000 mg) of abiraterone acetate were administered separately, one concomitantly with food of high fat content and one in fasting state. The first single dose was administered on day −9 with PK blood samples being taken at 1, 2, 4, 6, 8, 24, 48 and 72 hours post dose. The second single dose was administered on day −3 with PK blood samples being taken at 1, 2, 4, 6, 8, 24 and 48 hours post dose for analysis.

Data set [6] in a line: Pharmacokinetic study of abiraterone in hormone refractory prostate cancer patients, oral doses 250-2000 mg/day, fasted. How it is done:
A group of 15 subjects was divided into five groups. Members of each group were orally administered doses of 250 mg/day, 500 mg/day, 750 mg/day, 1000 mg/day or 2000 mg/day once a day. Before administration the subjects had fasted. PK blood samples were measured at 1, 2, 4, 6, 8, 24, and 72 hours post dose.
as §3
PK modeling was conducted using a non-compartmental model, extra vascular input for plasma with WinNonLin Software®. Pharmacokinetic parameters estimated in the model include: […]

Data set [7] is described as follows: Analgesic use in Group 1 and Group 2 subjects. Particulars: subjects of both groups.
For data set [8], the system named is alkaline phosphatase (ALP). Description: Blood plasma levels of alkaline phosphatase. As to conditions: some subjects. How it is done:
as §2

`CC(=O)O[C@H]1CC[C@@]2(C)C(=CCC3C2CC[C@]2(C)C(c4cccnc4)=CCC32)C1` (stereo partly shown) [abiraterone acetate, 3-acetoxy-17-(3-pyridyl)androsta-5,16-diene]: in data set [1], the “dose limiting toxicity (DLTs)” value was “No dose limiting toxicity (DLTs) were observed”. Besides, in the data set on tumor lesions (20 evaluable Group 1 subjects with measurable tumor lesions), the “partial radiological responses as measured by CT scans (RECIST)” value came to 11 subjects. The “subjects with ongoing stable bone disease” value in the data set on tumor lesions (Group 1) is reported as “Seven”. In addition, the “subjects with regressing bone disease” value in the data set with tumor lesions (Group 1) is on record as “three”. For the same molecule, the pelvic nodes result with tumor lesions (subject administered 250 mg/day (FIG. 10)), with tumor lesions (subject administered 750 mg/day (FIG. 11)) and in the data set with tumor lesions (subject administered 1000 mg/day (FIG. 12)) was “regression of pelvic nodes” throughout. In addition, the mediastinal nodes entry with tumor lesions (subject administered 500 mg/day (FIG. 13)) was “regression of mediastinal nodes”. Further, the pulmonary metastases result in the data set with tumor lesions (subject administered 750 mg/day (FIG. 14)) is reported as “regression of pulmonary metastases”. The “number of circulating tumor cells (CTC)” value in data set [2] was “declines”. Besides, in [3], the “blood plasma levels of androgenic steroids, such as testosterone” value was “declines”. Further, the “subjects with decline of PSA levels of greater than 50% for more than 10 days” value in data set [4] (Group 1: 30 castrated, hormone refractory, chemotherapy-naïve subjects (18 of 30)) turned out to be 60%. Also, the “subjects with PSA declines of greater than 90% for more than 10 days” value in data set [4] (Group 1, fraction of these subjects) was “A third”. For the same molecule, the “subjects with decline in PSA levels of about 50% for more than 10 days” value in data set [4] (Group 2: 13 castrated, hormone refractory, docetaxel-treated chemotherapy refractory subjects, 1000 mg/day) was 7 of the 13. Further, in data set [5] (extended cohort, fasted group), the “AUC at 2000 mg relative to 1000 mg (doubling)” value is reported as “no longer”. Moreover, in data set [5] (extended cohort, fed group), the “AUC at 2000 mg relative to 1000 mg” value was “approximate doubling of AUC”. Further, the “abiraterone acetate detected in vivo” value in [5] (following an oral dose of abiraterone acetate at 1000 mg) is listed as “no abiraterone acetate was detected”. Also, the “mean drug exposure (AUC) at 2000 mg relative to 1000 mg” value in data set [5] (previously, in both dosing regimes (fed and fasted)) is “approximately double”. For the same molecule, the “drug levels at 1000 mg compared with 500 mg” value in data set [6] (1000 mg vs 500 mg Abiraterone acetate) is on record as “higher”. Also, the “drug levels measured at 1000 mg compared with 750 mg fasting” value in data set [6] (1000 mg vs 750 mg in a fasting state) is “not higher”. For the same molecule, the analgesic use entry in data set [7] is “decrease in analgesic use was observed”. Also, in data set [8], the “blood plasma levels of alkaline phosphatase (ALP)” value is on record as “declines”.
